Experimental data as given in patent US10251395B2, “Substituted furano-/thienocycloalkylamino-2-pyrimidine derivatives and use thereof for controlling undesired plant growth” (Bayer CropScience Aktiengesellschaft, priority 2015, dated 2019).

Assays:
Abutilon theophrasti [1] = test: Pre-emergence herbicidal effect; format: in vivo; settings: Dosage 320 g/ha, scored visually after 3 weeks
In short: (§1)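 Visual damage score in % after 3 weeks in the greenhouse, relative to untreated controls (0% like control, 100% plants dead). Compounds were sprayed pre-emergence onto covering soil over seeds sown in sandy loam, as WP or EC in water at 600 to 800 L/ha plus 0.2% wetting agent.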

Alopecurus myosuroides [2] = test: Pre-emergence herbicidal effect; format: in vivo; settings: scored visually after 3 weeks
In short: as §1

Amaranthus retroflexus [3] = test: Pre-emergence herbicidal effect; format: in vivo; settings: scored visually after 3 weeks
In short: as §1

Echinochloa crus-galli [4] = test: Pre-emergence herbicidal effect; format: in vivo; settings: Dosage 320 g/ha, scored visually after 3 weeks
In short: as §1

Lolium multiflorum [5] = test: Pre-emergence herbicidal effect; format: in vivo; settings: scored visually after 3 weeks
In short: as §1

Matricaria inodora [6] = test: Pre-emergence herbicidal effect; format: in vivo; settings: scored visually after 3 weeks
In short: as §1

Polygonum convolvulus [7] = test: Pre-emergence herbicidal effect; format: in vivo; settings: scored visually after 3 weeks
In short: as §1

Setaria viridis [8] = test: Pre-emergence herbicidal effect; format: in vivo; settings: scored visually after 3 weeks
In short: as §1

Stellaria media [9] = test: Pre-emergence herbicidal effect; format: in vivo; settings: scored visually after 3 weeks
In short: as §1

Veronica persica [10] = test: Pre-emergence herbicidal effect; format: in vivo; settings: scored visually after 3 weeks
In short: as §1

Viola tricolor [11] = test: Pre-emergence herbicidal effect; format: in vivo; settings: scored visually after 3 weeks
In short: as §1

Abutilon theophrasti [12] = test: Post-emergence herbicidal effect; format: in vivo; settings: assessed visually after about 3 weeks vs untreated controls
In short: (§2)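 Greenhouse post-emergence spray: one-leaf seedlings, sandy loam, aqueous WP/EC formulation with 0.2% wetting agent at 600–800 L/ha. Visual assessment after ~3 weeks, as % activity relative to untreated controls.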

Alopecurus myosuroides [13] = test: Post-emergence herbicidal effect; format: in vivo; settings: 320 g/ha, assessed visually after about 3 weeks vs untreated controls
In short: as §2

Amaranthus retroflexus [14] = test: Post-emergence herbicidal effect; format: in vivo; settings: assessed visually after about 3 weeks vs untreated controls
In short: as §2

Echinochloa crus-galli [15] = test: Post-emergence herbicidal effect; format: in vivo; settings: 320 g/ha, assessed visually after about 3 weeks vs untreated controls
In short: as §2

Stellaria media [16] = test: Post-emergence herbicidal effect; format: in vivo; settings: assessed visually after about 3 weeks vs untreated controls
In short: as §2

Veronica persica [17] = test: Post-emergence herbicidal effect; format: in vivo; settings: 320 g/ha, assessed visually after about 3 weeks vs untreated controls
In short: as §2

Viola tricolor [18] = test: Post-emergence herbicidal effect; format: in vivo; settings: assessed visually after about 3 weeks vs untreated controls
In short: as §2

logP (HCOOH) = format: physicochemical; settings: HCOOH
From the text: Table 2 (physicochemical characterization of selected synthesis examples)

Setaria viridis [19] = test: Post-emergence herbicidal effect; format: in vivo; settings: 320 g/ha, assessed visually after about 3 weeks vs untreated controls
In short: as §2

Avena fatua = test: Pre-emergence herbicidal effect; format: in vivo; settings: Dosage 320 g/ha, scored visually after 3 weeks
In short: as §1

Ipomoea purpurea = test: Post-emergence herbicidal effect; format: in vivo; settings: assessed visually after about 3 weeks vs untreated controls
In short: as §2

Lolium multiflorum [20] = test: Post-emergence herbicidal effect; format: in vivo; settings: 320 g/ha, assessed visually after about 3 weeks vs untreated controls
In short: as §2

Matricaria inodora [21] = test: Post-emergence herbicidal effect; format: in vivo; settings: assessed visually after about 3 weeks vs untreated controls
In short: as §2

Polygonum convolvulus [22] = test: Post-emergence herbicidal effect; format: in vivo; settings: assessed visually after about 3 weeks vs untreated controls
In short: as §2

Compound: CS(=O)(=O)c1cnc(NC2CCCc3ccsc32)nc1N (racemic) [compound 69]
- ABUTH pre-emergence efficacy (herbicidal activity) (Abutilon theophrasti [1]): 100%
- ALOMY pre-emergence efficacy (herbicidal activity) (Alopecurus myosuroides [2]; Dosage 320 g/ha): 80%
- AMARE pre-emergence efficacy (herbicidal activity) (Amaranthus retroflexus [3]; Dosage 80 g/ha): 100%
- AMARE pre-emergence efficacy (herbicidal activity) (Amaranthus retroflexus [3]; Dosage 320 g/ha): 100%
- ECHCG pre-emergence efficacy (herbicidal activity) (Echinochloa crus-galli [4]): 100%
- LOLMU pre-emergence efficacy (herbicidal activity) (Lolium multiflorum [5]; Dosage 320 g/ha): 100%
- MATIN pre-emergence efficacy (herbicidal activity) (Matricaria inodora [6]; Dosage 80 g/ha): 100%
- MATIN pre-emergence efficacy (herbicidal activity) (Matricaria inodora [6]; Dosage 320 g/ha): 100%
- POLCO pre-emergence efficacy (herbicidal activity) (Polygonum convolvulus [7]; Dosage 320 g/ha): 100%
- SETVI pre-emergence efficacy (herbicidal activity) (Setaria viridis [8]; Dosage 320 g/ha): 100%
- STEME pre-emergence efficacy (herbicidal activity) (Stellaria media [9]; Dosage 80 g/ha): 100%
- STEME pre-emergence efficacy (herbicidal activity) (Stellaria media [9]; Dosage 320 g/ha): 100%
- VERPE pre-emergence efficacy (herbicidal activity) (Veronica persica [10]; Dosage 80 g/ha): 100%
- VERPE pre-emergence efficacy (herbicidal activity) (Veronica persica [10]; Dosage 320 g/ha): 100%
- VIOTR pre-emergence efficacy (herbicidal activity) (Viola tricolor [11]; Dosage 80 g/ha): 100%
- VIOTR pre-emergence efficacy (herbicidal activity) (Viola tricolor [11]; Dosage 320 g/ha): 100%
- post-emergence efficacy ABUTH (Abutilon theophrasti [12]; 320 g/ha): 80%
- post-emergence efficacy ALOMY (Alopecurus myosuroides [13]): 80%
- post-emergence efficacy AMARE (Amaranthus retroflexus [14]; 80 g/ha): 20%
- post-emergence efficacy AMARE (Amaranthus retroflexus [14]; 320 g/ha): 90%
- post-emergence efficacy ECHCG (Echinochloa crus-galli [15]): 80%
- post-emergence efficacy STEME (Stellaria media [16]; 320 g/ha): 90%
- post-emergence efficacy VERPE (Veronica persica [17]): 80%
- post-emergence efficacy VIOTR (Viola tricolor [18]; 80 g/ha): 80%
- post-emergence efficacy VIOTR (Viola tricolor [18]; 320 g/ha): 100%
- logP (HCOOH) (logP (HCOOH)): solid; m.p.: 129.9° C.; logP (HCOOH): 1.86; 1H NMR (CDCl3, 400 MHZ, δ in ppm): ):

Compound: Cc1cc2c(s1)CCCC2Nc1nc(N)c(C#N)c(C(C)F)n1 (racemic) [compound 320]
- AMARE pre-emergence efficacy (herbicidal activity) (Amaranthus retroflexus [3]; Dosage 320 g/ha): 100%
- MATIN pre-emergence efficacy (herbicidal activity) (Matricaria inodora [6]; Dosage 320 g/ha): 100%
- POLCO pre-emergence efficacy (herbicidal activity) (Polygonum convolvulus [7]; Dosage 320 g/ha): 100%
- SETVI pre-emergence efficacy (herbicidal activity) (Setaria viridis [8]; Dosage 320 g/ha): 100%
- STEME pre-emergence efficacy (herbicidal activity) (Stellaria media [9]; Dosage 320 g/ha): 100%
- VERPE pre-emergence efficacy (herbicidal activity) (Veronica persica [10]; Dosage 320 g/ha): 100%
- VIOTR pre-emergence efficacy (herbicidal activity) (Viola tricolor [11]; Dosage 320 g/ha): 100%
- post-emergence efficacy ABUTH (Abutilon theophrasti [12]; 320 g/ha): 80%
- post-emergence efficacy ALOMY (Alopecurus myosuroides [13]): 80%
- post-emergence efficacy AMARE (Amaranthus retroflexus [14]; 320 g/ha): 60%
- post-emergence efficacy SETVI (Setaria viridis [19]): 60%
- post-emergence efficacy STEME (Stellaria media [16]; 320 g/ha): 60%
- post-emergence efficacy VERPE (Veronica persica [17]): 100%
- post-emergence efficacy VIOTR (Viola tricolor [18]; 320 g/ha): 100%

Compound: C/C(=N\O)c1cnc(NC2CCCc3sc(Cl)cc32)nc1C (racemic) [compound 260]
- ALOMY pre-emergence efficacy (herbicidal activity) (Alopecurus myosuroides [2]; Dosage 80 g/ha): 70%
- ALOMY pre-emergence efficacy (herbicidal activity) (Alopecurus myosuroides [2]; Dosage 320 g/ha): 90%
- AMARE pre-emergence efficacy (herbicidal activity) (Amaranthus retroflexus [3]; Dosage 80 g/ha): 100%
- AMARE pre-emergence efficacy (herbicidal activity) (Amaranthus retroflexus [3]; Dosage 320 g/ha): 100%
- AVEFA pre-emergence efficacy (herbicidal activity) (Avena fatua): 90%
- ECHCG pre-emergence efficacy (herbicidal activity) (Echinochloa crus-galli [4]): 100%
- LOLMU pre-emergence efficacy (herbicidal activity) (Lolium multiflorum [5]; Dosage 80 g/ha): 50%
- LOLMU pre-emergence efficacy (herbicidal activity) (Lolium multiflorum [5]; Dosage 320 g/ha): 100%
- MATIN pre-emergence efficacy (herbicidal activity) (Matricaria inodora [6]; Dosage 80 g/ha): 100%
- MATIN pre-emergence efficacy (herbicidal activity) (Matricaria inodora [6]; Dosage 320 g/ha): 100%
- POLCO pre-emergence efficacy (herbicidal activity) (Polygonum convolvulus [7]; Dosage 80 g/ha): 80%
- POLCO pre-emergence efficacy (herbicidal activity) (Polygonum convolvulus [7]; Dosage 320 g/ha): 100%
- SETVI pre-emergence efficacy (herbicidal activity) (Setaria viridis [8]; Dosage 80 g/ha): 50%
- SETVI pre-emergence efficacy (herbicidal activity) (Setaria viridis [8]; Dosage 320 g/ha): 100%
- STEME pre-emergence efficacy (herbicidal activity) (Stellaria media [9]; Dosage 80 g/ha): 100%
- STEME pre-emergence efficacy (herbicidal activity) (Stellaria media [9]; Dosage 320 g/ha): 100%
- VERPE pre-emergence efficacy (herbicidal activity) (Veronica persica [10]; Dosage 80 g/ha): 100%
- VERPE pre-emergence efficacy (herbicidal activity) (Veronica persica [10]; Dosage 320 g/ha): 100%
- VIOTR pre-emergence efficacy (herbicidal activity) (Viola tricolor [11]; Dosage 80 g/ha): 100%
- VIOTR pre-emergence efficacy (herbicidal activity) (Viola tricolor [11]; Dosage 320 g/ha): 100%
- post-emergence efficacy ABUTH (Abutilon theophrasti [12]; 80 g/ha): 80%
- post-emergence efficacy ABUTH (Abutilon theophrasti [12]; 320 g/ha): 90%
- post-emergence efficacy AMARE (Amaranthus retroflexus [14]; 80 g/ha): 90%
- post-emergence efficacy AMARE (Amaranthus retroflexus [14]; 320 g/ha): 90%
- post-emergence efficacy ECHCG (Echinochloa crus-galli [15]): 100%
- post-emergence efficacy PHBPU (Ipomoea purpurea; 80 g/ha): 70%
- post-emergence efficacy PHBPU (Ipomoea purpurea; 320 g/ha): 90%
- post-emergence efficacy LOLMU (Lolium multiflorum [20]): 70%
- post-emergence efficacy MATIN (Matricaria inodora [21]; 80 g/ha): 70%
- post-emergence efficacy MATIN (Matricaria inodora [21]; 320 g/ha): 90%
- post-emergence efficacy POLCO (Polygonum convolvulus [22]; 80 g/ha): 60%
- post-emergence efficacy POLCO (Polygonum convolvulus [22]; 320 g/ha): 60%
- post-emergence efficacy SETVI (Setaria viridis [19]): 100%
- post-emergence efficacy STEME (Stellaria media [16]; 80 g/ha): 80%
- post-emergence efficacy STEME (Stellaria media [16]; 320 g/ha): 100%
- post-emergence efficacy VERPE (Veronica persica [17]): 100%
- post-emergence efficacy VIOTR (Viola tricolor [18]; 80 g/ha): 70%
- post-emergence efficacy VIOTR (Viola tricolor [18]; 320 g/ha): 90%
